# Experimental data as given in publication PMC6316187, “Synergistic AML Cell Death Induction by Marine Cytotoxin (+)-1(R), 6(S), 1’(R), 6’(S), 11(R), 17(S)-Fistularin-3 and Bcl-2 Inhibitor Venetoclax” (Marine Drugs, 2018).
# Target: DNA methyltransferase 1 (DNMT1) (Homo sapiens, UniProt P26358)
# Assay: in vitro DNMT activity/inhibition assay (Active Motif), […] ng purified DNMT1, colorimetric; […] compound
# Assay type: biochemical
# Sequence of DNA methyltransferase 1 (DNMT1) (P26358 whole entry): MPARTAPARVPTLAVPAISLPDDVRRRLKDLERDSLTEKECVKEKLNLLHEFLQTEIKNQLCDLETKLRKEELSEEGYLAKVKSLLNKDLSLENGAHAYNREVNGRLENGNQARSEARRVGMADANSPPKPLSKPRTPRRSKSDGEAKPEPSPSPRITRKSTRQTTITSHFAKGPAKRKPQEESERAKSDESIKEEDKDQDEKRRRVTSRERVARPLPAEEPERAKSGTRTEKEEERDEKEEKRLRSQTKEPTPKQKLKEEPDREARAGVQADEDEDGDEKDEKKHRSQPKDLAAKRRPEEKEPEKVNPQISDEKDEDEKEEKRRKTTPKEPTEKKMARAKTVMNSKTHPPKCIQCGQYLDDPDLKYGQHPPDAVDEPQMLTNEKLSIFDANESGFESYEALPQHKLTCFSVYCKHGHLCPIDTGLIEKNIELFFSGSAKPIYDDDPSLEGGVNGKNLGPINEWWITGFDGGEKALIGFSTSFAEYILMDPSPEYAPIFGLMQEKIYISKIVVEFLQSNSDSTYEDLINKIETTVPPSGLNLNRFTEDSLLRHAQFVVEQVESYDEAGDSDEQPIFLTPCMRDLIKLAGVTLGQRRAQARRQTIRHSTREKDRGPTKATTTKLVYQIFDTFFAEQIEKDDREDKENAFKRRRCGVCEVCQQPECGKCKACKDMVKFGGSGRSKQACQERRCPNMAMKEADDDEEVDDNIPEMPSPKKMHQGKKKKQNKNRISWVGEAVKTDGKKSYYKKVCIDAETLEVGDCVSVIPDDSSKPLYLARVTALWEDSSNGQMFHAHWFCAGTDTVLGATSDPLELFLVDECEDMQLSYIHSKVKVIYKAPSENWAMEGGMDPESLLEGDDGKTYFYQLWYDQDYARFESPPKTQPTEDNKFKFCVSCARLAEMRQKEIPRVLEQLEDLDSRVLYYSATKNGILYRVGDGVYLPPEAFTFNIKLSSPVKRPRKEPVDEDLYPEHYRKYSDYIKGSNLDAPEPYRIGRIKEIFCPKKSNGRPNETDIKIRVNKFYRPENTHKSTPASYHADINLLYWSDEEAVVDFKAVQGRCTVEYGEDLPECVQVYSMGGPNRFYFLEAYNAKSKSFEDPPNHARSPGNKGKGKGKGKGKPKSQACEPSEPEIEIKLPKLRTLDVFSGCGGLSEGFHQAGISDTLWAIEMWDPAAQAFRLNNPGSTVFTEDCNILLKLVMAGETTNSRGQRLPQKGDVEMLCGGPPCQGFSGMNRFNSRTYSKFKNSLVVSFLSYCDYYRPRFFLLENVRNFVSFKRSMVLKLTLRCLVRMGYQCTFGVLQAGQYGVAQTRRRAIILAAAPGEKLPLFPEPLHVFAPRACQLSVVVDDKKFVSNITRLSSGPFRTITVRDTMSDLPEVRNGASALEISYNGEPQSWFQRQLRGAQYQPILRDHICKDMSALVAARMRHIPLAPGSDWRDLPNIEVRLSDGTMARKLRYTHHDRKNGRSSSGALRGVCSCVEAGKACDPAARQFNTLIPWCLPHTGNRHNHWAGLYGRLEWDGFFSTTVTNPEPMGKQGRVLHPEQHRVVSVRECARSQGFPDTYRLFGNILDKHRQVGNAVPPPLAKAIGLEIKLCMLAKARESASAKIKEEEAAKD
smiles,measurement,value
"COC1=C(Br)[C@H](O)[C@@]2(C=C1Br)CC(C(=O)NC[C@@H](O)COc1c(Br)cc([C@H](O)CNC(=O)C3=NO[C@]4(C=C(Br)C(OC)=C(Br)[C@@H]4O)C3)cc1Br)=NO2 [RS-F3, (+)-11(R), 17(S)-fistularin-3]",inhibition at 50 µM,~25%
